Data on 10 molecules can be found in patent US20170121322A1, “BET-PROTEIN INHIBITING 3,4-DIHYDROPYRIDO[2,3-B]PYRAZINONES WITH META-SUBSTITUTED AROMATIC AMINO- OR ETHER GROUPS” (Bayer Pharma Aktiengesellschaft, priority 2014, published 2017).

The target in assay [1] is T1, BRD4 bromo domain 1 [BRD4(1)] (Homo sapiens, UniProt O60885).
T1 construct: N-terminally His6-tagged BRD4(1) (amino acids 67-152); made in house; host or cells: E. coli
Description: BRD4(1)/acetylated peptide H4 TR-FRET binding assay. As to conditions: His6-BRD4(1) (aa 67-152) vs acetylated histone H4 peptide. The text has this: To assess the BRD4(1) binding strength of the substances described in this application, the ability thereof to inhibit the interaction between BRD4(1) and acetylated histone H4 in a dose-dependent manner was quantified.
(§1) For this purpose, a time-resolved fluorescence resonance energy transfer (TR-FRET) assay was used, which measures the binding between N-terminally His6-tagged BRD4(1) (amino acids 67-152) and a synthetic acetylated histone H4 (Ac-H4) peptide with sequence GRGK(Ac)GGK(Ac)GLGK(Ac)GGAK(Ac)RHGSGSK-biotin. The recombinant BRD4(1) protein produced in-house according to Filippakopoulos et al., Cell, 2012, 149:214-231 was expressed in E. coli and purified by means of (Ni-NTA) affinity and (Sephadex G-75) size exclusion chromatography. The Ac-H4 peptide can be purchased, for example, from Biosyntan (Berlin, Germany).
(§2) In the assay, typically 11 different concentrations of each substance (0.1 nM, 0.33 nM, 1.1 nM, 3.8 nM, 13 nM, 44 nM, 0.15 μM, 0.51 μM, 1.7 μM, 5.9 μM and 20 μM) were analysed as duplicates on the same microtitre plate. For this purpose, 100-fold concentrated solutions in DMSO were prepared by serial dilutions (1:3.4) of a 2 mM stock solution into a clear, 384-well microtitre plate (Greiner Bio-One, Frickenhausen, Germany). From this, 50 nl were transferred into a black test plate (Greiner Bio-One, Frickenhausen, Germany). The test was started by the addition of 2 μl of a 2.5-fold concentrated BRD4(1) solution (final concentration typically 10 nM in the 5 μl of reaction volume) in aqueous assay buffer [50 mM HEPES pH 7.5, 50 mM sodium chloride (NaCl), 0.25 mM CHAPS and 0.05% serum albumin (BSA)] to the substances in the test plate. This was followed by a 10-minute incubation step at 22° C. for the pre-equilibration of putative complexes between BRD4(1) and the substances. Subsequently, 3 μl of a solution of 1.67 times the concentration (in assay buffer) consisting of Ac-H4 peptide (83.5 nM) and TR-FRET detection reagents [16.7 nM anti-6His-XL665 and 3.34 nM streptavidin cryptate (both from Cisbio Bioassays, Codolet, France), and 668 mM potassium fluoride (KF)] were added.
(§3) The mixture was then incubated in the dark at 22° C. for one hour and then at 4° C. for at least 3 hours and for no longer than overnight. The formation of BRD4(1)/Ac-H4 complexes was determined by the measurement of the resonance energy transfer from the streptavidin-Eu cryptate to the anti-6His-XL665 antibody present in the reaction. For this purpose, the fluorescence emission was measured at 620 nm and 665 nm after excitation at 330-350 nm in a TR-FRET measuring instrument, for example a Rubystar or Pherastar (both from BMG Lab Technologies, Offenburg, Germany) or a Viewlux (Perkin-Elmer). The ratio of the emissions at 665 nm and at 622 nm was taken as an indicator of the amount of BRD4(1)/Ac-H4 complexes formed.
The data (ratios) obtained were normalized, with 0% inhibition corresponding to the mean from the measurements for a set of controls (typically 32 data points) in which all the reagents were present. In these, in place of test substances, 50 nl of DMSO (100%) were used. Inhibition of 100% corresponded to the mean from the measurements for a set of controls (typically 32 data points) in which all the reagents except BRD4(1) were present. The IC50 was determined by regression analysis based on a 4-parameter equation (minimum, maximum, IC50, Hill; Y=Max+(Min−Max)/(1+(X/IC50)Hill).
On the technique in general: Time-resolved FRET reads energy transfer from a long-lived donor to a nearby acceptor.

Assay [2] addresses T2, BRD4 bromo domain 2 [BRD4(2)] (Homo sapiens, UniProt O60885).
T2 construct: N-terminally His6-tagged BRD4(2) (amino acids 357-445); made in house; host or cells: E. coli
Briefly: BRD4(2)/acetylated peptide H4 TR-FRET binding assay. The note with it: His6-BRD4(2) (aa 357-445) vs acetylated histone H4 peptide.
Text: To assess the BRD4(2) binding strength of the substances described in this application, the ability thereof to inhibit the interaction between BRD4(2) and acetylated histone H4 in a dose-dependent manner was quantified.
as §1, with “BRD4(2)” for “BRD4(1)”, “357-445)” for “67-152)”, “SGRGK(Ac)GGK(Ac)GLGK(Ac)GGAK(Ac)RHRKVLRDNGSGSK-biotin.” for “GRGK(Ac)GGK(Ac)GLGK(Ac)GGAK(Ac)RHGSGSK-biotin.”
as §2, with “concentrated BRD4(2)” for “concentrated BRD4(1)”, “typically 100” for “typically 10”, “chloride (NaCl); 50 mM potassium fluoride (KF);” for “chloride (NaCl),”, “between BRD4(2)” for “between BRD4(1)”, “substances.” for “substances. Subsequently, 3 μl of a solution of 1.67 times the concentration (in assay buffer) consisting of Ac-H4 peptide (83.5 nM) and TR-FRET detection reagents [16.7 nM anti-6His-XL665 and 3.34 nM streptavidin cryptate (both from Cisbio Bioassays, Codolet, France), and 668 mM potassium fluoride (KF)] were added.”
as §3, with “BRD4(2)/Ac-H4” for “BRD4(1)/Ac-H4”, “chelate” for “cryptate”
The data (ratios) obtained were normalized, with 0% inhibition corresponding to the mean from the measurements for a set of controls (typically 32 data points) in which all the reagents were present. In these, in place of test substances, 50 nl of DMSO (100%) were used. Inhibition of 100% corresponded to the mean from the measurements for a set of controls (typically 32 data points) in which all the reagents except BRD4(2) were present. The IC50 was determined by regression analysis based on a 4-parameter equation (minimum, maximum, IC50, Hill; Y=Max+(Min−Max)/(1+(X/IC50)Hill)).

Assay [3] deals with MOLM-13 cells. Briefly: Cell proliferation assay MOLM-13, method 2 (CellTiterGlo). The format is cell-based. The note with it: Homo sapiens, MOLM-13, 72 h; acute myeloid leukaemia cells, 500 cells/well, 1536-well, 3-day incubation, CellTiterGlo ATP readout. Here is the method: Alternatively, the MOLM-13 cells (DSMZ, ACC 554) were seeded at a concentration of 500 cells/well in 5 μl of growth medium (RPMI1640, 10% FCS) on 1536-well microtitre plates (method 2).
In method 2, after 3-day incubation with the inhibitor, the ATP concentration was determined as readout for the cell number using the CellTiterGlo kit (Promega). The measurement was carried out using a luminometer.
The substances were tested in the cell lines in Table 2, which represent the indications specified by way of example: […]
In general terms: Cellular ATP, detected with luciferase, serves as a proxy for viable cell number.

Where only a bound is given, the exact number is not on record here.

The IC50 is the midpoint of a concentration-inhibition curve. A low value points to inhibition by little substance. For `C[C@@H]1C(=O)N(C)c2ccc(Nc3cccc(S(C)(=N)=O)c3)nc2N1C1CCOCC1` (stereo partly drawn) [Example 44, (3R)-1,3-Dimethyl-6-{[3-(S-methylsulphonimidoyl)phenyl]amino}-4-(tetrahydro-2H-pyran-4-yl)-3,4-dihydropyrido[2,3-b]pyrazin-2(1H)-one], the IC50 in assay [1] is 3.64 µM; in assay [2], 7.34 µM; in assay [3], greater than 10 µM.

As to `COc1ccc(S(=O)(=O)C(C)C)cc1Nc1ccc2c(n1)N(C1CCN(C(=O)OC(C)(C)C)CC1)[C@H](C)C(=O)N2C` [Example 24, tert-Butyl 4-[(3R)-6-{[5-(isopropylsulphonyl)-2-methoxyphenyl]amino}-1,3-dimethyl-2-oxo-2,3-dihydropyrido[2,3-b]pyrazin-4(1H)-yl]piperidine-1-carboxylate], the IC50 is 0.086 µM in assay [1], 0.078 µM in assay [2] and 0.147 µM in assay [3].

Turning to `C[C@@H]1C(=O)N(C)c2ccc(Nc3cccc(-c4ccc(C#N)cc4)c3)nc2N1C1CCOCC1` [Example 18, 3′-{[(3R)-1,3-Dimethyl-2-oxo-4-(tetrahydro-2H-pyran-4-yl)-1,2,3,4-tetrahydropyrido[2,3-b]pyrazin-6-yl]amino}biphenyl-4-carbonitrile], the figures for the IC50 in assay [1], in assay [2] and in assay [3] were 1.1 µM, 0.294 µM and 1.65 µM, respectively.

As for `C=CCS(=O)(=O)c1ccc(OC)c(Nc2ccc3c(n2)N(C2CCN(C)CC2)[C@H](C)C(=O)N3C)c1` [Example 23, (3R)-6-{[5-(Allylsulphonyl)-2-methoxyphenyl]amino}-1,3-dimethyl-4-(1-methylpiperidin-4-yl)-3,4-dihydropyrido[2,3-b]pyrazin-2(1H)-one], the 50% inhibitory concentration (IC50) in assay [1] worked out at 0.027 µM; in assay [2] it was 0.064 µM; in assay [3], 0.051 µM.

Consider `CCS(=O)(=O)c1ccc(Oc2ccccc2)c(Nc2ccc3c(n2)N(C2CCOCC2)[C@H](C)C(=O)N3C)c1` [Example 36, (3R)-6-{[5-(Ethylsulphonyl)-2-phenoxyphenyl]amino}-1,3-dimethyl-4-(tetrahydro-2H-pyran-4-yl)-3,4-dihydropyrido[2,3-b]pyrazin-2(1H)-one], for which the figures for the IC50 in assay [1], in assay [2] and in assay [3] were 0.034 µM, 0.049 µM and 0.16 µM, respectively.

For the molecule `C[C@@H]1C(=O)N(C)c2ccc(Nc3cccc(N4CCN(C)CC4)c3)nc2N1C1CCOCC1` [Example 41, (3R)-1,3-Dimethyl-6-{[3-(4-methylpiperazin-1-yl)phenyl]amino}-4-(tetrahydro-2H-pyran-4-yl)-3,4-dihydropyrido[2,3-b]pyrazin-2(1H)-one], the IC50 in assay [1] turned out to be 0.133 µM; in assay [2], 0.63 µM; in assay [3] it was 0.708 µM.

Regarding `CCS(=O)(=O)c1ccc(Oc2ccc(F)cc2)c(Nc2ccc3c(n2)N(C2CCN(C)CC2)[C@H](C)C(=O)N3C)c1` [Example 32, (3R)-6-{[5-(Ethylsulphonyl)-2-(4-fluorophenoxy)phenyl]amino}-1,3-dimethyl-4-(1-methylpiperidin-4-yl)-3,4-dihydropyrido[2,3-b]pyrazin-2(1H)-one], the 50% inhibitory concentration (IC50) in assay [1] was found to be 0.945 µM; in assay [2], 0.029 µM; in assay [3], 0.04 µM.

Take `CCS(=O)(=O)c1ccc(Oc2ccccc2)c(Nc2ccc3c(n2)N(C2CCN(C)CC2)[C@H](C)C(=O)N3C)c1` [Example 33, (3R)-6-{[5-(Ethylsulphonyl)-2-phenoxyphenyl]amino}-1,3-dimethyl-4-(1-methylpiperidin-4-yl)-3,4-dihydropyrido[2,3-b]pyrazin-2(1H)-one]: the IC50 in assay [1] worked out at 0.015 µM; in assay [2], 0.051 µM; in assay [3] it was 0.026 µM.

As for `CCS(=O)(=O)c1ccc(Oc2ccc(F)cc2)c(Nc2ccc3c(n2)N(C2CCOCC2)[C@H](C)C(=O)N3C)c1` [Example 37, (3R)-6-{[5-(Ethylsulphonyl)-2-(4-fluorophenoxy)phenyl]amino}-1,3-dimethyl-4-(tetrahydro-2H-pyran-4-yl)-3,4-dihydropyrido[2,3-b]pyrazin-2(1H)-one], the IC50 in assay [1] amounted to 0.035 µM; in assay [2], 0.039 µM; in assay [3] it was 0.124 µM.

Take `COc1ccc(S(C)(=O)=O)cc1Nc1ccc2c(n1)N(C1CCN(C(=O)OC(C)(C)C)CC1)[C@H](C)C(=O)N2C` [Example 25, tert-Butyl 4-[(3R)-6-{[2-methoxy-5-(methylsulphonyl)phenyl]amino}-1,3-dimethyl-2-oxo-2,3-dihydropyrido[2,3-b]pyrazin-4(1H)-yl]piperidine-1-carboxylate]: the figures for the IC50 in assay [1], in assay [2] and in assay [3] were 0.156 µM, 0.135 µM and 0.576 µM, respectively.
